Experimental findings from PubChem BioAssay (NCI) are described below.

Among the test systems are A498 renal; CCRF-CEM leukemia; HCT-15 colon; IGROV1 ovarian; K-562 leukemia; LOX IMVI melanoma; MCF7 breast; MDA-MB-435; NCI-H460 lung; NCI-H522 lung; NCI/ADR-RES ovarian; OVCAR-8 ovarian; SF-295 CNS; SK-MEL-2 melanoma; SK-MEL-28 melanoma; SN12C renal; TK-10 renal; UACC-62 melanoma; HOP-92 NSCLC; MOLT-4 leukemia.
Test in all cases: NCI anticancer screen, dose series, 48 h

Structures are written as SMILES.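 Cultured in 96-well plates, cells were exposed to test compound for 48 hours across five concentrations. At the TGI there is no net growth.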

Turning to `NC(=O)C(=O)c1ncn(Cc2ccccc2)c1N`, the TGI in the assay on A498 renal, in the assay on CCRF-CEM leukemia, in the assay on HCT-15 colon, with IGROV1 ovarian, in the assay with K-562 leukemia and in the assay on LOX IMVI melanoma was above 100 µM in each case. Besides, the TGI in the assay on MCF7 breast, in the assay with MDA-MB-435, in the assay on NCI-H460 lung, with NCI-H522 lung, in the assay with NCI/ADR-RES ovarian and in the assay with OVCAR-8 ovarian was above 100 µM in each case. In addition, the TGI with SF-295 CNS, in the assay with SK-MEL-2 melanoma, with SK-MEL-28 melanoma, in the assay on SN12C renal, in the assay with TK-10 renal and in the assay with UACC-62 melanoma was above 100 µM throughout.

Regarding `Clc1ccc(Nc2nnc(CCCCCCCCc3nnc(Nc4ccc(Cl)cc4)o3)o2)cc1`, the TGI in the assay on A498 renal is above 100 µM; with HCT-15 colon, above 100 µM; with HOP-92 NSCLC, 98.7 µM; in the assay with IGROV1 ovarian, above 100 µM; with K-562 leukemia, above 100 µM; with MCF7 breast it was above 100 µM. Also, the TGI in the assay with MDA-MB-435 was above 100 µM; with MOLT-4 leukemia, above 100 µM; with NCI-H460 lung, above 100 µM; with NCI-H522 lung it was 73.1 µM; in the assay with NCI/ADR-RES ovarian, above 100 µM; in the assay with SF-295 CNS, above 100 µM. Also, the TGI was above 100 µM in the assay on SK-MEL-2 melanoma; above 100 µM in the assay with SK-MEL-28 melanoma; above 100 µM in the assay with SN12C renal; above 100 µM in the assay with TK-10 renal; 78.4 µM in the assay with UACC-62 melanoma.

With `COc1cc(=O)c2c(O)c3c(O)oc(C)cc3c(OC)c2c1`, the TGI was above 100 µM in the assay on A498 renal; 52.6 µM in the assay with CCRF-CEM leukemia; 86.8 µM in the assay on HCT-15 colon; 42.4 µM in the assay with HOP-92 NSCLC; 70.2 µM with IGROV1 ovarian; 51.7 µM in the assay on K-562 leukemia. In addition, the TGI with MCF7 breast is above 100 µM; in the assay on MDA-MB-435, 32.7 µM; in the assay with MOLT-4 leukemia, 73.7 µM; in the assay on NCI-H460 lung, above 100 µM; in the assay with NCI-H522 lung it was above 100 µM; in the assay on NCI/ADR-RES ovarian it was 46.7 µM. Further, the TGI with OVCAR-8 ovarian stood at 72 µM; in the assay on SF-295 CNS, 72.7 µM; in the assay with SK-MEL-2 melanoma, 98.9 µM; in the assay on SK-MEL-28 melanoma it was 60 µM; in the assay with SN12C renal, 55.8 µM; with TK-10 renal, 64.9 µM. The TGI with UACC-62 melanoma came to 52.9 µM.

As for `Clc1c(Cl)c(Cl)c2c(nnn2C2CCCO2)c1Cl` (stereo not given), the TGI with A498 renal was 88.7 µM; with CCRF-CEM leukemia, 77.9 µM; with HCT-15 colon, 67 µM; in the assay on IGROV1 ovarian it was above 100 µM; in the assay on K-562 leukemia, 48.7 µM; with MCF7 breast it was above 100 µM. Further, the TGI is above 100 µM in the assay with MDA-MB-435; 46.3 µM in the assay with MOLT-4 leukemia; 41.8 µM in the assay on NCI-H460 lung; 66.6 µM with NCI-H522 lung; above 100 µM in the assay on NCI/ADR-RES ovarian; above 100 µM in the assay on OVCAR-8 ovarian. The TGI with SF-295 CNS was above 100 µM; with SK-MEL-2 melanoma it was 73.3 µM; in the assay with SN12C renal it was above 100 µM; with TK-10 renal, above 100 µM; in the assay with UACC-62 melanoma it was above 100 µM.

`O=C1C(C(O)(C(F)(F)Cl)C(F)(F)Cl)CCCC1C(O)(C(F)(F)Cl)C(F)(F)Cl` (stereo not given): the TGI in the assay on A498 renal, in the assay with HCT-15 colon, in the assay on HOP-92 NSCLC, in the assay with IGROV1 ovarian, in the assay with LOX IMVI melanoma and in the assay with MCF7 breast was above 10 µM each time. In addition, the TGI in the assay with MDA-MB-435, in the assay on NCI-H460 lung, in the assay on NCI-H522 lung, in the assay on NCI/ADR-RES ovarian, in the assay with OVCAR-8 ovarian and in the assay on SF-295 CNS was above 10 µM in each case. Also, the TGI in the assay with SK-MEL-2 melanoma, in the assay with SK-MEL-28 melanoma, with TK-10 renal and in the assay with UACC-62 melanoma was above 10 µM each time.

For the molecule `CCN(CC)CCC(=O)c1ccc(Sc2ccc(F)cc2)cc1`, the TGI with A498 renal is 45.7 µM; with CCRF-CEM leukemia it was 34 µM; in the assay with HCT-15 colon, 33.4 µM; in the assay with IGROV1 ovarian, 35 µM; in the assay on K-562 leukemia it was above 100 µM; with LOX IMVI melanoma, 37.2 µM. In addition, the TGI in the assay with MCF7 breast was 31 µM; in the assay on MDA-MB-435, 32.4 µM; with MOLT-4 leukemia it was 33.5 µM; in the assay on NCI-H460 lung, 41.1 µM; in the assay on NCI-H522 lung it was 35.8 µM; in the assay on NCI/ADR-RES ovarian it was 71.1 µM. For the same molecule, the TGI worked out at 48.1 µM in the assay on OVCAR-8 ovarian; 35.1 µM in the assay on SF-295 CNS; 45.1 µM in the assay on SK-MEL-2 melanoma; 34.3 µM in the assay on SK-MEL-28 melanoma; 46.8 µM in the assay with SN12C renal; 27.9 µM with TK-10 renal. This molecule returned a TGI in the assay with UACC-62 melanoma of 31.1 µM.

With `Cc1c2ccnc(C(=O)NCCN(C)C)c2cc2c3cc(O)ccc3n(C)c12`, the TGI in the assay with CCRF-CEM leukemia was 0.24 µM; in the assay on HCT-15 colon it was 4.39 µM; in the assay with HOP-92 NSCLC, 3.59 µM; in the assay on IGROV1 ovarian, 6.72 µM; with K-562 leukemia it was 2.4 µM; in the assay with LOX IMVI melanoma, 1.26 µM. Also, the TGI with MCF7 breast stood at 5.75 µM; with MDA-MB-435, 1.54 µM; in the assay with MOLT-4 leukemia, 0.0147 µM; in the assay with NCI-H460 lung, 1.39 µM; in the assay on NCI-H522 lung, 1.02 µM; with NCI/ADR-RES ovarian it was 6.64 µM. The TGI was 4.06 µM in the assay with OVCAR-8 ovarian; 3.37 µM with SF-295 CNS; 1.7 µM in the assay with SK-MEL-2 melanoma; 2.14 µM in the assay with SK-MEL-28 melanoma; 2.15 µM in the assay with SN12C renal; 9.05 µM with TK-10 renal. The molecule further displayed a TGI in the assay on UACC-62 melanoma of 1.01 µM.
